Measurements published in patent US11345666B2, “Phenyl and pyridinyl substituted imidazoles as modulators of RORγT” (Janssen Pharmaceutica NV, priority 2018, dated 2022).
Marks after values point to notes of the source that are not given here.

How the values were obtained:
[1] = target: full-length human RORγt (Homo sapiens (Human), UniProt P51449); assay: RORγt (full-length human) reporter assay, conditions A or B; type: cell-based; settings: for IC50: HEK293T cells, read-out: RORγt (FL) Reporter Assay A or B, IC50; for inhibition at 6 µM: read-out: RORγt (FL) Reporter Assay A or B, % inhibition @ 6 μM, 6 μM compound concentration; for inhibition at 2 µM: 2 μM compound concentration (**); for inhibition at 2 µM / inhibition at 0.67 µM / inhibition at 0.22 µM: read-out: RORγt (FL) Reporter Assay A or B, % inhibition; for inhibition at 0.22 µM: 0.22 μM compound concentration (******)
Method in brief: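 HEK293T cells transiently co-transfected (PEI) with GAL4-DBD–RORγt, GAL4-firefly luciferase and CMV-Renilla reporters; condition A 35,000 cells/well, 170.5 ng DNA/well; condition B 8750 cells/well, 42.6 ng DNA/well.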

[2] = target: human RORγt ligand binding domain (RORγt LBD) (Homo sapiens (Human), UniProt P51449); assay: RORγt ThermoFluor assay
Method in brief: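 Thermal shift of His-tagged human RORγt LBD (0.065 mg/mL) with 60 μM 1,8-ANS in 100 mM Hepes pH 7.0, 10 mM NaCl, 2.5 mM GSH, 0.002% Tween-20, heated at 1° C./min. Compounds in 1:2 series from a 10 mM DMSO stock; KD estimated from ΔTm using protein unfolding thermodynamics.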

[3] = 0.67 μM compound concentration (****)

human RORγt ligand binding domain (RORγt LBD), sequence (P51449 other isoform, or with tags, fused parts or gaps): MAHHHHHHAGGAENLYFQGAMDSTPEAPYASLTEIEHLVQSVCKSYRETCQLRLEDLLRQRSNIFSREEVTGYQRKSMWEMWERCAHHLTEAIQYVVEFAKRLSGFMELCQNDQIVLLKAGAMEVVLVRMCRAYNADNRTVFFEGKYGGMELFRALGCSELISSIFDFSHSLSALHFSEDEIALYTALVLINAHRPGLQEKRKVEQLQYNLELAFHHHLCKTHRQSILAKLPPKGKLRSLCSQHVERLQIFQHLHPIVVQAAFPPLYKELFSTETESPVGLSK
full-length human RORγt, sequence (P51449 other isoform, or with tags, fused parts or gaps): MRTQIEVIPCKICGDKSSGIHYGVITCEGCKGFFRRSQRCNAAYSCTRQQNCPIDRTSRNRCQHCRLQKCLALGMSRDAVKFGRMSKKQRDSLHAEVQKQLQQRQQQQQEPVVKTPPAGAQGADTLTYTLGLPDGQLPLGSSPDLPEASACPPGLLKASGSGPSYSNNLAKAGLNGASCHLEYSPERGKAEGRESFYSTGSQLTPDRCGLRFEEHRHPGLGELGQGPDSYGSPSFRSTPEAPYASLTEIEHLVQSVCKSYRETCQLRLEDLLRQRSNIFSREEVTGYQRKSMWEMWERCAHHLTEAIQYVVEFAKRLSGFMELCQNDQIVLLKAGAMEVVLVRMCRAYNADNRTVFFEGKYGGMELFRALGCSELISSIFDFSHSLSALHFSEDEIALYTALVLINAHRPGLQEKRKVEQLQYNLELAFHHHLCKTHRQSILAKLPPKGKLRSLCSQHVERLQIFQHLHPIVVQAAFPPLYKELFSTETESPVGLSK

| SMILES | IC50 [1] | inhibition at 6 µM [1] | Kd [2] | inhibition at 2 µM [1] | inhibition at 0.67 µM [1, 3] | inhibition at 0.22 µM [1] | RORγt (FL) Reporter Assay A or B, % inhibition [1, 3] |
| --- | --- | --- | --- | --- | --- | --- | --- |
| CCc1nc(C(=O)NC[C@]2(O)CC[C@@H](S(C)(=O)=O)CC2)c(C#N)n1-c1ccc(CCC(F)(F)F)cc1OC(F)F [Example 25, 5-Cyano-1-(2-(difluoromethoxy)-4-(3,3,3-trifluoropropyl)phenyl)-2-ethyl-N-(((1s,4s)-1-hydroxy-4-(methylsulfonyl)cyclohexyl)methyl)-1H-imidazole-4-carboxamide] | 370 nM | 101% | 84 nM |  |  |  |  |
| CCc1nc(C(=O)NC[C@H]2CC[C@H](S(C)(=O)=O)CC2)c(C#N)n1-c1ccc(CCC(F)(F)F)cc1OC(F)F [Example 26, 5-Cyano-1-(2-(difluoromethoxy)-4-(3,3,3-trifluoropropyl)phenyl)-2-ethyl-N-(((1r,4r)-4-(methylsulfonyl)cyclohexyl)methyl)-1H-imidazole-4-carboxamide] | 54 nM | 96% | 24 nM |  |  |  |  |
| [2H]C([2H])([2H])Oc1cc(CC(C)(C)C(F)(F)F)ccc1-n1c(CC)nc(C(=O)NC[C@]2(O)CC[C@@H](S(C)(=O)=O)CC2)c1C#N [Example 28, 5-Cyano-2-ethyl-N-(((1s,4s)-1-hydroxy-4-(methylsulfonyl)cyclohexyl)methyl)-1-(2-(methoxy-d3)-4-(3,3,3-trifluoro-2,2-dimethylpropyl)phenyl)-1H-imidazole-4-carboxamide] | 33 nM |  | 2.5 nM | 102% |  |  |  |
| [2H]C([2H])([2H])Oc1cc(CCC(F)(F)F)ccc1-n1c(CC)nc(C(=O)NC[C@H]2CC[C@H](S(C)(=O)=O)CC2)c1C#N [Example 29, 5-Cyano-2-ethyl-1-(2-(methoxy-d3)-4-(3,3,3-trifluoropropyl)phenyl)-N-(((1r,4r)-4-(methylsulfonyl)cyclohexyl)methyl)-1H-imidazole-4-carboxamide] | 87 nM | 95% | 15 nM |  |  |  |  |
| [2H]C([2H])([2H])Oc1cc(CCC(F)(F)F)ccc1-n1c(CC)nc(C(=O)NC[C@]2(O)CC[C@@H](S(C)(=O)=O)CC2)c1C#N [Example 30, 5-Cyano-2-ethyl-N-(((1s,4s)-1-hydroxy-4-(methylsulfonyl)cyclohexyl)methyl)-1-(2-(methoxy-d3)-4-(3,3,3-trifluoropropyl)phenyl)-1H-imidazole-4-carboxamide] | 320 nM | 96% | 44 nM |  |  |  |  |
| [2H]C([2H])([2H])Oc1cc(CC(C)(C)C(F)(F)F)ccc1-n1c(CC)nc(C(=O)NC[C@]2(C#N)CC[C@@H](S(C)(=O)=O)CC2)c1F [Example 31, N-(((1s*,4s*)-1-Cyano-4-(methylsulfonyl)cyclohexyl)methyl)-2-ethyl-5-fluoro-1-(2-(methoxy-d3)-4-(3,3,3-trifluoro-2,2-dimethylpropyl)phenyl)-1H-imidazole-4-carboxamide] | 78 nM |  | 14 nM | 101% |  |  |  |
| [2H]C([2H])([2H])Oc1cc(CC(C)(C)C(F)(F)F)ccc1-n1c(CC)nc(C(=O)NC[C@]2(O)CC[C@@H](S(C)(=O)=O)CC2)c1F [Example 32, 2-Ethyl-5-fluoro-N-(((1s,4s)-1-hydroxy-4-(methylsulfonyl)cyclohexyl)methyl)-1-(2-(methoxy-d3)-4-(3,3,3-trifluoro-2,2-dimethylpropyl)phenyl)-1H-imidazole-4-carboxamide] | 71 nM |  | 12 nM | 99% |  |  |  |
| CCc1nc(C(=O)NC[C@H]2CC[C@H](S(C)(=O)=O)CC2)c(F)n1-c1ccc(CC(C)(C)C(F)(F)F)cc1OC(F)F [Example 34, 1-(2-(Difluoromethoxy)-4-(3,3,3-trifluoro-2,2-dimethylpropyl)phenyl)-2-ethyl-5-fluoro-N-(((1r,4r)-4-(methylsulfonyl)cyclohexyl)methyl)-1H-imidazole-4-carboxamide] | 37 nM |  | 3.5 nM | 98% |  |  |  |
| CCc1nc(C(=O)NC[C@]2(O)CC[C@@H](S(C)(=O)=O)CC2)c(F)n1-c1ccc(CC(C)(C)C(F)(F)F)cc1OC(F)F [Example 35, 1-(2-(Difluoromethoxy)-4-(3,3,3-trifluoro-2,2-dimethylpropyl)phenyl)-2-ethyl-5-fluoro-N-(((1s,4s)-1-hydroxy-4-(methylsulfonyl)cyclohexyl)methyl)-1H-imidazole-4-carboxamide] | 28 nM | 97% | 11 nM |  |  |  |  |
| CCc1nc(C(=O)NC[C@]2(C#N)CC[C@@H](S(C)(=O)=O)CC2)c(C#N)n1-c1ccc(CC(C)(C)C(F)(F)F)cc1OC(F)F [Example 37, 5-Cyano-N-(((1s*,4s*)-1-cyano-4-(methylsulfonyl)cyclohexyl)methyl)-1-(2-(difluoromethoxy)-4-(3,3,3-trifluoro-2,2-dimethylpropyl)phenyl)-2-ethyl-1H-imidazole-4-carboxamide] | 5.3 nM |  | 0.87 nM |  |  |  | 105**** % |
| CCc1nc(C(=O)NC[C@H]2CC[C@H](S(C)(=O)=O)CC2)c(C)n1-c1ccc(CC(C)(C)C(F)(F)F)c(OC)c1 [Example 44, 2-Ethyl-1-(3-methoxy-4-(3,3,3-trifluoro-2,2-dimethylpropyl)phenyl)-5-methyl-N-(((1r,4r)-4-(methylsulfonyl)cyclohexyl)methyl)-1H-imidazole-4-carboxamide] | 31 nM |  | 4.1 nM |  |  | 75% |  |

Now from value to compound, other results behind:

| IC50 [1] | inhibition at 6 µM [1] | Kd [2] | inhibition at 2 µM [1] | inhibition at 0.67 µM [1, 3] | inhibition at 0.22 µM [1] | SMILES | RORγt (FL) Reporter Assay A or B, % inhibition [1, 3] |
| --- | --- | --- | --- | --- | --- | --- | --- |
| 15 nM |  | 4.8 nM |  | 94% |  | [2H]C([2H])([2H])Oc1cc(CC(C)(C)C(F)(F)F)ccc1-n1c(CC)nc(C(=O)NC[C@H]2CC[C@H](S(C)(=O)=O)CC2)c1F [Example 33, 2-Ethyl-5-fluoro-1-(2-(methoxy-d3)-4-(3,3,3-trifluoro-2,2-dimethylpropyl)phenyl)-N-(((1r,4r)-4-(methylsulfonyl)cyclohexyl)methyl)-1H-imidazole-4-carboxamide] |  |
| 19 nM |  | 4.4 nM |  | 97% |  | CCc1nc(C(=O)NC[C@]2(C#N)CC[C@@H](S(C)(=O)=O)CC2)c(F)n1-c1ccc(CC(C)(C)C(F)(F)F)cc1OC(F)F [Example 38, N-(((1s*,4s*)-1-Cyano-4-(methylsulfonyl)cyclohexyl)methyl)-1-(2-(difluoromethoxy)-4-(3,3,3-trifluoro-2,2-dimethylpropyl)phenyl)-2-ethyl-5-fluoro-1H-imidazole-4-carboxamide] |  |
| 7.9 nM |  | 0.42 nM |  | 101% |  | C#Cc1c(C(=O)NC[C@]2(C#N)CC[C@@H](S(C)(=O)=O)CC2)nc(CC)n1-c1ccc(CC(C)(C)C(F)(F)F)cc1OC(F)F [Example 39, N-(((1s*,4s*)-1-Cyano-4-(methylsulfonyl)cyclohexyl)methyl)-1-(2-(difluoromethoxy)-4-(3,3,3-trifluoro-2,2-dimethylpropyl)phenyl)-2-ethyl-5-ethynyl-1H-imidazole-4-carboxamide] |  |
| 3.2 nM |  | 0.73 nM | 105% |  |  | C#Cc1c(C(=O)NC[C@]2(O)CC[C@@H](S(C)(=O)=O)CC2)nc(CC)n1-c1ccc(CC(C)(C)C(F)(F)F)cc1OC(F)F [Example 40, 1-(2-(Difluoromethoxy)-4-(3,3,3-trifluoro-2,2-dimethylpropyl)phenyl)-2-ethyl-5-ethynyl-N-(((1s,4s)-1-hydroxy-4-(methylsulfonyl)cyclohexyl)methyl)-1H-imidazole-4-carboxamide] |  |
| 2.7 nM |  | 0.19 nM |  | 106% |  | C#Cc1c(C(=O)NC[C@H]2CC[C@H](S(C)(=O)=O)CC2)nc(CC)n1-c1ccc(CC(C)(C)C(F)(F)F)cc1OC(F)F [Example 41, 1-(2-(Difluoromethoxy)-4-(3,3,3-trifluoro-2,2-dimethylpropyl)phenyl)-2-ethyl-5-ethynyl-N-(((1r,4r)-4-(methylsulfonyl)cyclohexyl)methyl)-1H-imidazole-4-carboxamide] |  |
| 6.2 nM |  | 1.1 nM |  |  | 66% | CCc1nc(C(=O)NC[C@H]2CC[C@H](S(C)(=O)=O)CC2)c(Cl)n1-c1ccc(CC(C)(C)C(F)(F)F)c(OC)c1 [Example 42, 5-Chloro-2-ethyl-1-(3-methoxy-4-(3,3,3-trifluoro-2,2-dimethylpropyl)phenyl)-N-(((1r,4r)-4-(methylsulfonyl)cyclohexyl)methyl)-1H-imidazole-4-carboxamide] |  |
| 3.2 nM |  | 2.2 nM |  | 86% |  | CCc1nc(C(=O)NC[C@]2(O)CC[C@@H](S(C)(=O)=O)CC2)c(Cl)n1-c1ccc(CC(C)(C)C(F)(F)F)c(OC)c1 [Example 43, 5-Chloro-2-ethyl-N-(((1s,4s)-1-hydroxy-4-(methylsulfonyl)cyclohexyl)methyl)-1-(3-methoxy-4-(3,3,3-trifluoro-2,2-dimethylpropyl)phenyl)-1H-imidazole-4-carboxamide] |  |
| 11 nM |  | 7.7 nM |  | 77% |  | CCc1nc(C(=O)NC[C@]2(O)CC[C@@H](S(C)(=O)=O)CC2)c(C)n1-c1ccc(CC(C)(C)C(F)(F)F)c(OC)c1 [Example 45, 2-Ethyl-N-(((1s,4s)-1-hydroxy-4-(methylsulfonyl)cyclohexyl)methyl)-1-(3-methoxy-4-(3,3,3-trifluoro-2,2-dimethylpropyl)phenyl)-5-methyl-1H-imidazole-4-carboxamide] |  |
